# Experimental data reported in the supplement of paper PMC5579334.
# How the values were obtained:
# [1] = tested on: HS-PSS; test: relative IC50 (inflection point of fitted dose-response curve, CellTox-Green cytotoxicity, 72 h; top asymptote may be below 50%); higher = less potent
# Method in brief: (§1)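 MPNST cell lines and primary human Schwann cells were grown for 72 h at 37 °C in 384-well plates containing five 10-fold compound dilutions. CellTox-Green, added before seeding at a final 1:1000 dilution, gave fluorescence from DNA released by disrupted cells, and signals were scaled to vehicle and positive-control wells. Curves were fitted with a four-parameter logistic model. Drug sensitivity score and relative IC50 come from these fits, with IC50 censored at the top concentration.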
# [2] = tested on: HSC1; test: as above
# Method in brief: as §1
# [3] = tested on: S1507-2; test: as above
# Method in brief: as §1
# [4] = tested on: ST8814; test: as above
# Method in brief: as §1
# [5] = tested on: HS-PSS; test: relative IC50 (inflection point of fitted dose-response curve, CellTiter-Glo viability, 72 h; top asymptote may be below 50% inhibition); higher = less potent
# Method in brief: (§2)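 Viability of MPNST cell lines and primary human Schwann cells was read as CellTiter-Glo ATP luminescence after 72 h at 37 °C, 5% CO2, in 384-well plates seeded with 750–1000 cells per well. Each compound had been preprinted at five concentrations in 10-fold steps. Signals were scaled between vehicle and positive-control wells, duplicates averaged where present, and fitted with four-parameter logistic curves. Drug sensitivity score and relative IC50 (censored at the top concentration) come from those fits, and percent inhibition is taken at the top concentration.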
# [6] = tested on: HS-Sch-2; test: as above
# Method in brief: as §2
# [7] = tested on: HSC1; test: as above
# Method in brief: as §2
# [8] = tested on: HSC2; test: as above
# Method in brief: as §2
# [9] = tested on: S1507-2; test: as above
# Method in brief: as §2
# [10] = tested on: S462; test: as above
# Method in brief: as §2
# [11] = tested on: ST8814; test: as above
# Method in brief: as §2
# [12] = tested on: STS26T; test: as above
# Method in brief: as §2
# [13] = tested on: YST-1; test: as above
# Method in brief: as §2
# [14] = tested on: HSC2; test: relative IC50 (inflection point of fitted dose-response curve, CellTox-Green cytotoxicity, 72 h; top asymptote may be below 50%); higher = less potent
# Method in brief: as §1
# [15] = tested on: STS26T; test: as above
# Method in brief: as §1
Structure (SMILES),relative IC50 [1],relative IC50 [2],relative IC50 [3],relative IC50 [4],relative IC50 [5],relative IC50 [6],relative IC50 [7],relative IC50 [8],relative IC50 [9],relative IC50 [10],relative IC50 [11],relative IC50 [12],relative IC50 [13],relative IC50 [14],relative IC50 [15]
O=C(Nc1ccc2[nH]nc(-c3ccncc3)c2c1)[C@@H]1CCN(CC(=O)N2CCN(c3ccc(-c4ncccn4)cc3)CC2)C1,> 10000 nM,> 10000 nM,1950 nM,675 nM,677 nM,773 nM,263 nM,159 nM,568 nM,137 nM,234 nM,822 nM,2270 nM,,
CCNC(=O)CCC/C=C\C[C@@H]1[C@@H](/C=C/[C@@H](O)CCc2ccccc2)[C@H](O)C[C@@H]1O [Bimatoprost],> 5500 nM,> 5500 nM,> 5500 nM,> 5500 nM,> 5500 nM,> 5500 nM,> 5500 nM,> 5500 nM,> 5500 nM,,> 5500 nM,> 5500 nM,> 5500 nM,> 5500 nM,> 5500 nM
Oc1ncc(N(CCCl)CCCl)c(O)n1 [Uracil mustard],,> 10000 nM,> 10000 nM,> 10000 nM,,,> 10000 nM,> 10000 nM,> 10000 nM,> 10000 nM,,> 10000 nM,,> 10000 nM,> 10000 nM
O=C(Nc1cccnc1)N1CCC(Cc2cccc(Oc3ccc(C(F)(F)F)cn3)c2)CC1 [PF-3845],> 10000 nM,> 10000 nM,> 10000 nM,> 10000 nM,1410 nM,3070 nM,1520 nM,1430 nM,> 10000 nM,,,,3520 nM,,> 10000 nM
O=C(O)CCCc1ccc(N(CCCl)CCCl)cc1 [Chlorambucil],> 10000 nM,> 10000 nM,> 10000 nM,> 10000 nM,> 10000 nM,> 10000 nM,,,> 10000 nM,> 10000 nM,> 10000 nM,> 10000 nM,,> 10000 nM,> 10000 nM
COc1cc(F)c(F)c(Nc2ccc(I)cc2F)c1NS(=O)(=O)C1(C[C@H](O)CO)CC1 [Refametinib],3270 nM,> 10000 nM,1860 nM,1600 nM,1800 nM,1620 nM,849 nM,443 nM,362 nM,382 nM,451 nM,306 nM,,,
CC1(C)NC(=O)N(c2ccc([N+](=O)[O-])c(C(F)(F)F)c2)C1=O [Nilutamide],> 10000 nM,> 10000 nM,> 10000 nM,> 10000 nM,,,,> 10000 nM,> 10000 nM,> 10000 nM,> 10000 nM,> 10000 nM,> 10000 nM,> 10000 nM,> 10000 nM
Cc1c(Cn2c(C)nc3c(C(=O)O)cc(N4CCOCC4)cc32)cccc1C(F)(F)F,> 10000 nM,> 10000 nM,> 10000 nM,> 10000 nM,,> 10000 nM,> 10000 nM,> 10000 nM,931 nM,> 10000 nM,,,> 10000 nM,> 10000 nM,> 10000 nM
Oc1ccc2c(c1)CC[C@H](c1ccccc1)[C@@H]2c1ccc(OCCN2CCCC2)cc1 [Lasofoxifene],> 1000 nM,> 1000 nM,> 1000 nM,> 1000 nM,,> 1000 nM,> 1000 nM,> 1000 nM,> 1000 nM,,> 1000 nM,> 1000 nM,> 1000 nM,> 1000 nM,> 1000 nM
CCCCCOC(=O)Nc1nc(=O)n([C@@H]2O[C@H](C)[C@@H](O)[C@H]2O)cc1F [Capecitabine],> 10000 nM,> 10000 nM,> 10000 nM,> 10000 nM,> 10000 nM,> 10000 nM,> 10000 nM,> 10000 nM,> 10000 nM,> 10000 nM,> 10000 nM,,> 10000 nM,> 10000 nM,> 10000 nM
CS(=O)(=O)CCNCc1ccc(-c2ccc3ncnc(Nc4ccc(OCc5cccc(F)c5)c(Cl)c4)c3c2)o1 [Lapatinib],> 1000 nM,> 1000 nM,> 1000 nM,> 1000 nM,> 1000 nM,> 1000 nM,> 1000 nM,> 1000 nM,> 1000 nM,> 1000 nM,> 1000 nM,,,> 1000 nM,> 1000 nM
CN1CCN(CCOc2cc(OC3CCOCC3)c3c(Nc4c(Cl)ccc5c4OCO5)ncnc3c2)CC1 [Saracatinib],,> 10000 nM,99.5 nM,1550 nM,1570 nM,2810 nM,452 nM,1530 nM,1530 nM,818 nM,1320 nM,1110 nM,,8110 nM,
COc1cc2c(NC3CCN(C(C)C)CC3)nc(N3CCC(F)(F)CC3)nc2cc1OCCCN1CCCC1 [UNC0642],2960 nM,> 10000 nM,2900 nM,3020 nM,2600 nM,2880 nM,,> 10000 nM,1940 nM,2690 nM,2970 nM,3060 nM,3190 nM,> 10000 nM,2910 nM
O=C1CN2Cc3c(ccc(Cl)c3Cl)N=C2N1 [Anagrelide],> 10000 nM,> 10000 nM,> 10000 nM,> 10000 nM,> 10000 nM,144 nM,,134 nM,> 10000 nM,> 10000 nM,,> 10000 nM,> 10000 nM,,> 10000 nM
